Drawing on patent US20090018134A1, “Compounds - 945” (AstraZeneca AB, priority 2007, published 2009), this text covers IC50 for 27 compounds.

Molecules are shown by their SMILES.

The target of one assay is T1, mTOR (Homo sapiens, UniProt P42345).
T1 construct: FLAG; made in house
T1 sequence (P42345 1362-2549): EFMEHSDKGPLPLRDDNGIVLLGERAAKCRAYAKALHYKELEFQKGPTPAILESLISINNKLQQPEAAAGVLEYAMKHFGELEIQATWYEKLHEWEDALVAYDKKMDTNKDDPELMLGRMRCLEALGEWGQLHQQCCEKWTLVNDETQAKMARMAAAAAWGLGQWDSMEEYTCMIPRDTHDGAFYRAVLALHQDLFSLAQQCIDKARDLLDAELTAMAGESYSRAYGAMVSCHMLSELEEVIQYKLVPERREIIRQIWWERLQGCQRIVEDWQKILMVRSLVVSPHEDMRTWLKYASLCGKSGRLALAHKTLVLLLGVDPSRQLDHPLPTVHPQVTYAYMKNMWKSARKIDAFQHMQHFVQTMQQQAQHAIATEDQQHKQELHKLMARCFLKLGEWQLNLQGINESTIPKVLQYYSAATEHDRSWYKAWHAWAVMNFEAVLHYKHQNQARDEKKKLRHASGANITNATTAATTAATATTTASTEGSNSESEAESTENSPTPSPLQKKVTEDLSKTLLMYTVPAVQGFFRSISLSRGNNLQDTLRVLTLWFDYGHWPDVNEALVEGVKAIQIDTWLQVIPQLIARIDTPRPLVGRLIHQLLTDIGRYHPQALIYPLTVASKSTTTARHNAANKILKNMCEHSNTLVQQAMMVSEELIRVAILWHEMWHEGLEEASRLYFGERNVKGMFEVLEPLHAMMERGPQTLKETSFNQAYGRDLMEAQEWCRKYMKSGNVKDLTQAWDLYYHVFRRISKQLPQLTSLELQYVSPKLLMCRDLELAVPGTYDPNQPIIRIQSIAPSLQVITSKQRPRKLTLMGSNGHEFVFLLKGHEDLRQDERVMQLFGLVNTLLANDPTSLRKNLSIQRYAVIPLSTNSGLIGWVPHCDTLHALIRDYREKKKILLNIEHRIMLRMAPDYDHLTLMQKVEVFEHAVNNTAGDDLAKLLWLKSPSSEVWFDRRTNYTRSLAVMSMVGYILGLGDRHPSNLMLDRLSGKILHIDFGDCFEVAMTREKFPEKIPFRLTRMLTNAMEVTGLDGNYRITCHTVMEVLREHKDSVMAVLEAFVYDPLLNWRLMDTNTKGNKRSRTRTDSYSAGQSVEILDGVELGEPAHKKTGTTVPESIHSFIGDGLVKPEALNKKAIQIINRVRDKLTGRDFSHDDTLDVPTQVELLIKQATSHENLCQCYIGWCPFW
Nature of the assay: In Vitro mTOR Kinase Assay (Echo), Test (a)(ii). The note with it: read-out: mTOR Kinase Assay (Echo). In kind it is biochemical. A digest of the protocol:
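Inhibition of truncated mTOR (1362-2549, FLAG-tagged, purified from stably transfected HEK293 cells) is measured as reduced AlphaScreen signal from a phospho-T389-recognising antibody bound to the biotinylated peptide product. Kinase incubation lasts 2 hours at room temperature. Potency is given as IC50.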
Turning to `CC(C)CNC(=O)Nc1ccc(-c2nc(N3CCOC[C@@H]3C)cc(C3(S(=O)(=O)c4ccccc4C(F)(F)F)CC3)n2)cc1` [Example 10c, 1-[4-[4-[(3S)-3-methylmorpholin-4-yl]-6-[1-[2-(trifluoromethyl)phenyl]sulfonylcyclopropyl]pyrimidin-2-yl]phenyl]-3-(2-methylpropyl)urea], the IC50 amounted to 147 nM.

With `CNC(=O)Nc1ccc(-c2nc(N3CCOC[C@@H]3C)cc(C3(S(=O)(=O)c4ccccc4C(F)(F)F)CC3)n2)cc1` [Example 10i, 3-methyl-1-[4-[4-[(3S)-3-methylmorpholin-4-yl]-6-[1-[2-(trifluoromethyl)phenyl]sulfonylcyclopropyl]pyrimidin-2-yl]phenyl]urea], the IC50 was 5.91 nM.

Regarding `C[C@H]1COCCN1c1cc(C2(S(=O)(=O)c3ccccc3C(F)(F)F)CC2)nc(-c2ccc(NC(=O)NCCN(C)C)cc2)n1` [Example 10f, 3-(2-dimethylaminomethyl)-1-[4-[4-[(3S)-3-methylmorpholin-4-yl]-6-[1-[2-(trifluoromethyl)phenyl]sulfonylcyclopropyl]pyrimidin-2-yl]phenyl]urea], the IC50 is 174 nM.

Regarding `CCNC(=O)Nc1ccc(-c2nc(N3CCOC[C@@H]3C)cc(C3(S(C)(=O)=O)CCCC3)n2)cc1` [Example 4a, 3-ethyl-1-[4-[4-[(3S)-3-methylmorpholin-4-yl]-6-(1-methylsulfonylcyclopentyl)pyrimidin-2-yl]phenyl]urea], the IC50 was 2.16 nM.

Still in this assay, the particulars now being: table of enzyme assay Test (a)(ii); read-out: Test (a)(ii) IC50.
Turning to `C[C@H]1COCCN1c1cc(C2(S(=O)(=O)C3CC3)CCC2)nc(-c2ccc(NC(=O)NC(C)(C)CO)cc2)n1` [Example 64w, 1-[4-[4-(1-cyclopropylsulfonylcyclobutyl)-6-[(3S)-3-methylmorpholin-4-yl]pyrimidin-2-yl]phenyl]-3-(1-hydroxy-2-methylpropan-2-yl)urea], the IC50 is 16.1 nM.

With `C[C@H]1COCCN1c1cc(C2(S(=O)(=O)c3ccccn3)CC2)nc(-c2ccc(NC(=O)Nc3ccon3)cc2)n1` [Example 64ag, 1-[4-[4-[(3S)-3-methylmorpholin-4-yl]-6-(1-pyridin-2-ylsulfonylcyclopropyl)pyrimidin-2-yl]phenyl]-3-(1,2-oxazol-3-yl)urea], the IC50 came to 2.81 nM.

As to `CCNC(=O)Nc1ccc(-c2nc(N3[C@@H](C)COC[C@@H]3C)cc(C3(S(C)(=O)=O)CC3)n2)cc1` [Example 91b, 1-[4-[4-[(3S,5S)-3,5-dimethylmorpholin-4-yl]-6-(1-methylsulfonylcyclopropyl)pyrimidin-2-yl]phenyl]-3-ethylurea], the IC50 was found to be 5.21 nM.

As for `CNC(=O)Nc1ccc(-c2nc(N3CCOC[C@@H]3C)cc(C3(S(=O)(=O)c4c(F)cccc4F)CC3)n2)cc1` [Example 86, 1-[4-[4-[1-(2,6-Difluorophenyl)sulfonylcyclopropyl]-6-[(3S)-3-methylmorpholin-4-yl]pyrimidin-2-,yl]phenyl]-3-methylurea], the IC50 is 2.47 nM.

As for `C[C@H]1COCCN1c1cc(C2(S(=O)(=O)c3ccccc3F)CC2)nc(-c2ccc(NC(=O)NCC3(O)CC3)cc2)n1` [Example 58g, 1-[4-[4-[1-(2-fluorophenyl)sulfonylcyclopropyl]-6-[(3S)-3-methylmorpholin-4-yl]pyrimidin-2-yl]phenyl]-3-[(1-hydroxycyclopropyl)methyl]urea], the IC50 was 10.2 nM.

Consider `C[C@@H](CO)NC(=O)Nc1ccc(-c2nc(N3CCOC[C@@H]3C)cc(C3(S(=O)(=O)CCCO)CCC3)n2)cc1` [Example 43q, 3-[(2S)-1-hydroxypropan-2-yl]-1-[4-[4-[1-(3-hydroxypropylsulfonyl)cyclobu-tyl]-6-[(3S)-3-methylmorpholin-4-yl]pyrimidin-2-yl]phenyl]urea], for which the IC50 was found to be 28 nM.

In the case of `C[C@H]1COCCN1c1cc(C2(S(=O)(=O)c3ccc(F)cc3)CC2)nc(-c2ccc(NC(=S)NC3CC3)cc2)n1` [Example 37t, 3-cyclopropyl-1-[4-[4-[1-(4-fluorophenyl)sulfonylcyclopropyl]-6-[(3S)-3-methylmorpholin-4-yl]pyrimidin-2-yl]phenyl]thiourea], the IC50 worked out at 8.89 nM.

`C[C@H]1COCCN1c1cc(C2(S(=O)(=O)c3ccccn3)CC2)nc(-c2ccc(NC(=O)NCC(F)F)cc2)n1` [Example 64af, 3-(2,2-difluoroethyl)-1-[4-[4-[(3S)-3-methylmorpholin-4-yl]-6-(1-pyridin-2-ylsulfonylcyclopropyl)pyrimidin-2-yl]phenyl]urea]: the IC50 was found to be 3.39 nM.

For the compound `C[C@H]1COCCN1c1cc(C2(S(=O)(=O)c3ccc(C#N)cc3)CC2)nc(-c2ccc(NC(=O)NCCO)cc2)n1` [Example 77c, 1-[4-[4-[1-(4-cyanophenyl)sulfonylcyclopropyl]-6-[(3S)-3-methylmorpholin-4-yl]pyrimidin-2-yl]phenyl]-3-(2-hydroxyethyl)urea], the IC50 stood at 4.37 nM.

In the case of `C[C@H]1COCCN1c1cc(C2(S(=O)(=O)c3ccccc3)CC2)nc(-c2ccc(NC(=O)NCC(=O)O)cc2)n1` [Example 36dp, 2-[[4-[4-[1-(benzenesulfonyl)cyclopropyl]-6-[(3S)-3-methylmorpholin-4-yl]pyrimidin-2-yl]phenyl]carbamoylamino]aceticacid], the IC50 came to 10.6 nM.

Turning to `Cc1noc(C)c1S(=O)(=O)C1(c2cc(N3CCOC[C@@H]3C)nc(-c3ccc(NC(=O)NCC(F)F)cc3)n2)CC1` [Example 59d, 3-(2,2-difluoroethyl)-1-[4-[4-[1-[(3,5-dimethyl-1,2-oxazol-4-yl)sulfonyl]cyclopropyl]-6-[(3S)-3-methylmorpholin-4-yl]pyrimidin-2-yl]phenyl]urea], the IC50 was determined as 32 nM.

As for `C[C@H]1COCCN1c1cc(C2(S(=O)(=O)c3ccc(Cl)cc3)CC2)nc(-c2ccc(NC(=O)NC3CCC3)cc2)n1` [Example 27a, 1-[4-[4-[1-(4-chlorophenyl)sulfonylcyclopropyl]-6-[(3S)-3-methylmorpholin-4-yl]pyrimidin-2-yl]phenyl]-3-cyclobutylurea], the IC50 is 3.88 nM.

With `CC(C)(CO)NC(=O)Nc1ccc(-c2nc(N3CCOCC3)cc(C3(S(=O)(=O)C4CC4)CCCC3)n2)cc1` [Example 13m, 1-[4-[4-(1-cyclopropylsulfonylcyclopentyl)-6-morpholin-4-ylpyrimidin-2-yl]phenyl]-3-(1-hydroxy-2-methylpropan-2-yl)urea], the IC50 came out at 53.2 nM.

`C[C@H]1COCCN1c1cc(C2(S(=O)(=O)C3CCCCC3)CC2)nc(-c2ccc(NC(=O)NCCCO)cc2)n1` [Example 26g, 1-[4-[4-(1-cyclohexylsulfonylcyclopropyl)-6-[(3S)-3-methylmorpholin-4-yl]pyrimidin-2-yl]phenyl]-3-(3-hydroxypropyl)urea]: the IC50 was found to be 7.46 nM.

On to `CCS(=O)(=O)C1(c2cc(N3CCOC[C@@H]3C)nc(-c3ccc(NC(=O)NCC(F)F)cc3)n2)CC1` [Example 36eg, 3-(2,2-difluoroethyl)-1-[4-[4-(1-ethylsulfonylcyclopropyl)-6-[(3S)-3-methylmorpholin-4-yl]pyrimidin-2-yl]phenyl]urea], for which the IC50 was found to be 8.77 nM.

On to `C[C@H]1COCCN1c1cc(C2(S(=O)(=O)C3CC3)CCC2)nc(-c2ccc(NC(=O)NCCC#N)cc2)n1` [Example 36g, 3-(2-cyanoethyl)-1-[4-[4-(1-cyclopropylsulfonylcyclobutyl)-6-[(3S)-3-methylmorpholin-4-yl]pyrimidin-2-yl]phenyl]urea], for which the IC50 was determined as 8.41 nM.

Turning to `C[C@H]1COCCN1c1cc(C2(S(=O)(=O)c3ccncc3)CCC2)nc(-c2ccc(NC(=O)NCc3ncc[nH]3)cc2)n1` [Example 83d, 3-(1H-imidazol-2-ylmethyl)-1-[4-[4-[(3S)-3-methylmorpholin-4-yl]-6-(1-pyridin-4-ylsulfonylcyclobutyl)pyrimidin-2-yl]phenyl]urea], the IC50 worked out at 47.2 nM.

As for `C[C@H]1COCCN1c1cc(C2(S(=O)(=O)C(C)(C)C)CC2)nc(-c2ccc(NC(=O)Nc3cnn(C)c3)cc2)n1` [Example 18m, 1-[4-[4-(1-tert-butylsulfonylcyclopropyl)-6-[(3S)-3-methylmorpholin-4-yl]pyrimidin-2-yl]phenyl]-3-(1-methylpyrazol-4-yl)urea], the IC50 turned out to be 3.15 nM.

As to `CCNC(=O)Nc1ccc(-c2nc(N3CCOC[C@@H]3C)cc(C3(S(C)(=O)=O)CCCC3)n2)cc1` [Example 4a, 3-ethyl-1-[4-[4-[(3S)-3-methylmorpholin-4-yl]-6-(1-methylsulfonylcyclopentyl)pyrimidin-2-yl]phenyl]urea], the IC50 is 2.17 nM.

Regarding `CNC(=O)Nc1ncc(-c2nc(N3CCOC[C@@H]3C)cc(C3(S(C)(=O)=O)CCCC3)n2)cn1` [Example 14t, 3-methyl-1-[5-[4-[(3S)-3-methylmorpholin-4-yl]-6-(1-methylsulfonylcyclopentyl)pyri-midin-2-yl]pyrimidin-2-yl]urea], the IC50 amounted to 197 nM.

As to `Cc1csc(S(=O)(=O)C2(c3cc(N4CCOC[C@@H]4C)nc(-c4ccc(NC(=S)NCCO)cc4)n3)CC2)n1` [Example 37r, 3-(2-hydroxyethyl)-1-[4-[4-[(3S)-3-methylmorpholin-4-yl]-6-[1-[(4-methyl-1,3-thiazol-2-yl)sulfonyl]cyclopropyl]pyri-midin-2-yl]phenyl]thiourea], the IC50 came out at 1.62 nM.

As for `C[C@H]1COCCN1c1cc(C2(S(=O)(=O)C(C)(C)C)CC2)nc(-c2ccc(NC(=O)NCCN(C)C)cc2)n1` [Example 18f, 1-[4-[4-(1-tert-butylsulfonylcyclopropyl)-6-[(3S)-3-methylmorpholin-4-yl]pyrimidin-2-yl]phenyl]-3-(2-dimethylaminoethyl)urea], the IC50 came out at 120 nM.

As to `Cc1noc(C)c1S(=O)(=O)C1(c2cc(N3CCOC[C@@H]3C)nc(-c3ccc(NC(=O)NCCO)cc3)n2)CC1` [Example 59b, 1-[4-[4-[1-[(3,5-dimethyl-1,2-oxazol-4-yl)sulfonyl]cyclopropyl]-6-[(3S)-3-methylmorpholin-4-yl]pyrimidin-2-yl]phenyl]-3-(2-hydroxyethyl)urea], the IC50 turned out to be 9.93 nM.

In the case of `C[C@H]1COCCN1c1cc(C2(S(=O)(=O)C3CC3)CC2)nc(-c2ccc(NC(=O)NCC(F)F)cc2)n1` [Example 64u, 1-[4-[4-(1-cyclopropylsulfonylcyclopropyl)-6-[(3S)-3-methylmorpholin-4-yl]pyrimidin-2-yl]phenyl]-3-(2,2-difluoroethyl)urea], the IC50 was found to be 13.9 nM.
